Assay: mn = molality of the nth substance listed, in mol/kg
Details: 101 kPa, Liquid

O=C([O-])[C@H](O)[C@@H](O)C(=O)[O-].[Na+].[Na+] [disodium L-tartrate] + O
Details	mass density, 298.15 K [kg/m3]	mass density, 308.15 K [kg/m3]	mass density, 318.15 K [kg/m3]	speed of sound, 298.15 K [m/s]	speed of sound, 308.15 K [m/s]	speed of sound, 318.15 K [m/s]
m1 = 0.0325	1001.45	998.34	994.47	1502	1524.8	1541.3
m1 = 0.0351	1001.8	998.7	994.82	1502.3	1525.2	1541.7
m1 = 0.0405	1002.51	999.4	995.52	1503.1	1526	1542.3
m1 = 0.0552	1004.48	1001.34	997.43	1505.4	1528	1544.3
m1 = 0.0576	1004.79	1001.64	997.72	1505.7	1528.4	1544.6
m1 = 0.0673	1006.08	1002.91	998.99	1507.2	1529.7	1545.9
m1 = 0.0747	1007.06	1003.87	999.92	1508.2	1530.7	1547
m1 = 0.0814	1007.94	1004.73	1000.77	1509.9	1531.6	1547.7
m1 = 0.1365	1015.14	1011.79	1007.83	1517.3	1539.2	1554.9
m1 = 0.2798	1033.29	1029.68	1025.48	1537.5	1558.2	1572.9
m1 = 0.4159	1049.92	1046.11	1041.78	1556.3	1575.8	1589.4
m1 = 0.5661	1067.63	1063.54	1059.16	1576.4	1594.6	1607.3
m1 = 0.7158	1084.68	1080.39	1075.77	1598.6	1615.3	1624.1
m1 = 0.888	1103.52	1098.96	1094.15	1618.5	1633.8	1644
m1 = 1.055	1121.13	1116.46	1111.35	1639.6	1653.6	1662.2
m1 = 1.211	1137	1132.16	1126.7	1659	1671.7	1679.2
m1 = 1.412	1156.69	1151.68	1146.41	1683.6	1694.5	1701.2
m1 = 1.593	1173.71	1168.58	1163.14	1705.1	1714.6	1719.8
m1 = 1.749	1187.9	1182.99	1176.91	1723.3	1732	1734.8
m1 = 2.203	1226.56	1221.08	1215.23	1774	1778.7	1779.7

Reference: the NIST ThermoML archive (doi:10.1021/je050498q)
